# Assay results as given in patent US10414811B2, “Protease-resistant lipidated GLP-1 analogs” (MEDIMMUNE LIMITED, priority 2015, dated 2019).
# Where two headings read alike, the source gives them in different places. Numbered stars: 1 amine (or outer) side, 2 acyl side, 3 side chain; on linkers, the order of the positions; unused ones are H or OH. Square brackets hold non-standard residues; d marks the D form. Side chains are listed from the residue outwards. Peptide text beside a SMILES is read from it. * marks the point of attachment. C18 diacid = O=C(O)CCCCCCCCCCCCCCCCC(=O)*; γGlu = O=C(O)[C@H](CCC(=O)[*:2])N[*:1]; Stearoyl = CCCCCCCCCCCCCCCCCC(=O)*; Palmitoyl = CCCCCCCCCCCCCCCC(=O)*; αMeF = C[C@](N)(Cc1ccccc1)C(=O)O; αMeK = C[C@](N)(CCCCN)C(=O)O; Lauroyl = CCCCCCCCCCCC(=O)*; αMeS = C[C@](N)(CO)C(=O)O; AEEA = NCCOCCOCC(=O)O; Aib = CC(C)(N)C(=O)O
# Columns and labels:
# Assay type in all cases: cell-based
# [1] = target: T1, human glucagon receptor (GCGR) (Homo sapiens, UniProt P47871); assay: cAMP assay, human GCGR cells
# T1 construct: expressed in transfected cells
# T1 sequence (P47871 26-477): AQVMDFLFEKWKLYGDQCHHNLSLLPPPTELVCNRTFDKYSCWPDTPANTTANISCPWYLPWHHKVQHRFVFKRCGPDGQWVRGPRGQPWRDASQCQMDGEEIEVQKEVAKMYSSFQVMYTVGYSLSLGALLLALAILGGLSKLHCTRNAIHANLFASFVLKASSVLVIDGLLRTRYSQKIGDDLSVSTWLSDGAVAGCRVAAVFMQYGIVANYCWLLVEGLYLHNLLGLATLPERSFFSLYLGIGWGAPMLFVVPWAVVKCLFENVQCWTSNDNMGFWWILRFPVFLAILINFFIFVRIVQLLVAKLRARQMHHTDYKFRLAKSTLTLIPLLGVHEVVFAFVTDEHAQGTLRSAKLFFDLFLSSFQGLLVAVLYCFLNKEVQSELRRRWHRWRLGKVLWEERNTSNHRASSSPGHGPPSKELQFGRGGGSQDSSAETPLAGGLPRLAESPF
# Method in brief: (§1)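 Peptide-stimulated cAMP measured by two-step HTRF after a 30 min room-temperature incubation with receptor-expressing cells (hGLP-1R, hGIPR at 1×10^5 cells/ml; hGCGR at 2×10^5 cells/ml). Duplicate dilutions; EC50 from 4-parameter logistic fit of % Delta F.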
# [2] = target: T2, human glucose-dependent insulinotropic peptide receptor (GIPR) (Homo sapiens, UniProt P48546); assay: cAMP assay, human GIPR cells
# T2 construct: expressed in transfected cells
# T2 sequence (P48546 22-466): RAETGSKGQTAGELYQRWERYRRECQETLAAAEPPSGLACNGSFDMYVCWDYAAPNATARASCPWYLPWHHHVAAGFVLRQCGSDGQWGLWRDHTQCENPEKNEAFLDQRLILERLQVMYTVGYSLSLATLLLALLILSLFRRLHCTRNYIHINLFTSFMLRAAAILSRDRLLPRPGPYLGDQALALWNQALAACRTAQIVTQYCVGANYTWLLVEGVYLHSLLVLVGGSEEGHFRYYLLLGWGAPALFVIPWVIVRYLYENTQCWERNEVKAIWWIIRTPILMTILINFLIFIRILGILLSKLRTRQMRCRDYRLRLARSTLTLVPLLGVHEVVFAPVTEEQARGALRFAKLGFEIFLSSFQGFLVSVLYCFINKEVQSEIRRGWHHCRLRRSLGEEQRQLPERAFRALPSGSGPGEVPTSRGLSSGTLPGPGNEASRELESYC
# Method in brief: as §1
# GLP-1R (INS1e assay) = target: T3, GLP-1R (INS1e assay) (Rattus norvegicus, UniProt P32301); assay: INS1e assay, cAMP activity at GLP-1R
# T3 construct: endogenous in cells; host or cells: INS-1E cells
# T3 sequence (P32301 22-463): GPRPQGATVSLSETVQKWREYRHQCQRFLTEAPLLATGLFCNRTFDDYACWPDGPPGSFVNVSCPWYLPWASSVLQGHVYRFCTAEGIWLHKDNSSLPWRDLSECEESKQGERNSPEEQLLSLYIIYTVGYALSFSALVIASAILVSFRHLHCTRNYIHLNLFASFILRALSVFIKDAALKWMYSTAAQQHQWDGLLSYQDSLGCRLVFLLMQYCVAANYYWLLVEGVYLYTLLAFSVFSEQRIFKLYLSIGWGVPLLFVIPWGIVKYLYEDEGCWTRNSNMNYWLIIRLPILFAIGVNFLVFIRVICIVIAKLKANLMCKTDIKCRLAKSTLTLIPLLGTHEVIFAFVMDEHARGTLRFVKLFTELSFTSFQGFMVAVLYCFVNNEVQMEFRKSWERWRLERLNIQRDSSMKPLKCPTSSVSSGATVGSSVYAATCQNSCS
# Experimental: cAMP levels are measured using a commercially available cAMP dynamic 2 HTRF kit (Cisbio, Cat #62AM4PEJ), following the two step protocol as per manufacturer's recommendations. In brief; anti-cAMP cryptate (donor fluorophore) and cAMP-d2 (acceptor fluorophore) are made up separately by diluting each 1/20 in conjugate & lysis buffer provided in the kit. 5 μL anti-cAMP cryptate is added to wells of the assay plate, and 5 μL cAMP-d2 is added to wells except non-specific binding (NSB) wells, to which conjugate and lysis buffer are added. […] EC50 values of the synthetic peptides determined in cAMP assays are then determined.
# [3] = cAMP assay, first determination (n1), read-out: Primary assay EC50 Gluc-R (n1)
# [4] = cAMP assay, second determination (n2), read-out: Primary assay EC50 Gluc-R (n2)
# [5] = cAMP assay, first determination (n1), read-out: Primary assay EC50 GIP-R (n1)
# [6] = cAMP assay, second determination (n2), read-out: Primary assay EC50 GIP-R (n2)
# [7] = mono-lipidated peptides, mean of n1 and n2, read-out: INS1e assay EC50 Mean pM GLP-1R
# [8] = mono-lipidated peptides, replicate n1, read-out: INS1e assay EC50 GLP-1R n1
# [9] = mono-lipidated peptides, replicate n2, read-out: INS1e assay EC50 GLP-1R n2
Compound,"EC50 [1, 3]","EC50 [1, 4]","EC50 [2, 5]","EC50 [2, 6]",EC50 (GLP-1R (INS1e assay); [7]),EC50 (GLP-1R (INS1e assay); [8]),EC50 (GLP-1R (INS1e assay); [9]),"EC50 ([1]; tris-lipidated peptides, second replicate, read-out: Primary assay EC50 Gluc-R (n2))","EC50 ([2]; tris-lipidated peptides, first replicate, read-out: Primary assay EC50 GIP-R (n1))","EC50 (GLP-1R (INS1e assay); tris-lipidated peptides, mean of n1 and n2, read-out: INS1e assay EC50 Mean pM GLP-1R)","EC50 (GLP-1R (INS1e assay); tris-lipidated peptides, replicate n1, read-out: INS1e assay EC50 GLP-1R n1)","EC50 (GLP-1R (INS1e assay); tris-lipidated peptides, replicate n2, read-out: INS1e assay EC50 GLP-1R n2)"
CC[C@H](C)[C@H](NC(=O)[C@](C)(Cc1ccccc1)NC(=O)[C@H](CCC(=O)O)NC(=O)[C@](C)(CCCCN)NC(=O)[C@H](C)NC(=O)[C@H](C)NC(=O)[C@H](CCC(=O)O)NC(=O)CNC(=O)[C@H](CCC(=O)O)NC(=O)[C@H](CC(C)C)NC(=O)[C@](C)(Cc1ccccc1)NC(=O)[C@H](CO)NC(=O)[C@](C)(CO)NC(=O)[C@@H](NC(=O)[C@H](CC(=O)O)NC(=O)[C@H](CO)NC(=O)[C@@H](NC(=O)[C@](C)(Cc1ccccc1)NC(=O)[C@H](CO)NC(=O)CNC(=O)[C@H](CCC(=O)O)NC(=O)C(C)(C)NC(=O)[C@@H](N)Cc1c[nH]cn1)[C@@H](C)O)C(C)C)C(=O)N[C@@H](C)C(=O)N[C@@](C)(Cc1ccccc1)C(=O)N[C@H](C(=O)N[C@H](C(=O)N[C@@H](CCC(=O)O)C(=O)NCC(=O)NCC(N)=O)C(C)C)C(C)C [compound 43] (H-H[Aib]EGS[αMeF]TSDV[αMeS]S[αMeF]LEGEAA[αMeK]E[αMeF]IA[αMeF]VVEGG-NH2),≥ 31 nM,≥ 31 nM,≥ 31 nM,≥ 31 nM,13 pM,16 pM,10.5 pM,,,,,
CCCCCCCCCCCC(=O)N[C@@H](CCC(=O)NCCOCCOCC(=O)NCCOCCOCC(=O)NCCCC[C@H](NC(=O)CNC(=O)[C@H](CCC(=O)O)NC(=O)[C@H](CC(C)C)NC(=O)[C@H](CCCCNC(=O)COCCOCCNC(=O)COCCOCCNC(=O)CC[C@H](NC(=O)CCCCCCCCCCC)C(=O)O)NC(=O)[C@H](CO)NC(=O)[C@](C)(CO)NC(=O)[C@@H](NC(=O)[C@H](CC(=O)O)NC(=O)[C@H](CO)NC(=O)[C@@H](NC(=O)[C@](C)(Cc1ccccc1)NC(=O)[C@H](CO)NC(=O)CNC(=O)[C@H](CCC(=O)O)NC(=O)C(C)(C)NC(=O)[C@@H](N)Cc1c[nH]cn1)[C@@H](C)O)C(C)C)C(=O)N[C@@H](C)C(=O)N[C@@H](C)C(=O)N[C@@](C)(CCCCN)C(=O)N[C@@H](CCC(=O)O)C(=O)N[C@@H](Cc1ccccc1)C(=O)N[C@H](C(=O)N[C@@H](C)C(=O)N[C@@H](Cc1ccccc1)C(=O)N[C@@H](CCCCNC(=O)COCCOCCNC(=O)COCCOCCNC(=O)CC[C@H](NC(=O)CCCCCCCCCCC)C(=O)O)C(=O)N[C@H](C(=O)N[C@@H](CCC(=O)O)C(=O)NCC(=O)NCC(N)=O)C(C)C)[C@@H](C)CC)C(=O)O [compound 480] (H-H[Aib]EGS[αMeF]TSDV[αMeS]SK([AEEA-AEEA-γGlu-Lauroyl])LEGK([AEEA-AEEA-γGlu-Lauroyl])AA[αMeK]EFIAFK([AEEA-AEEA-γGlu-Lauroyl])VEGG-NH2),,,,,,,,20 nM,20 nM,6530 pM,9370 pM,3690 pM
CCCCCCCCCCCCCCCC(=O)N[C@@H](CCC(=O)NCCCC[C@H](NC(=O)[C@H](CC(=O)O)NC(=O)[C@H](CO)NC(=O)[C@@H](NC(=O)[C@](C)(Cc1ccccc1)NC(=O)[C@H](CO)NC(=O)CNC(=O)[C@H](CCC(=O)O)NC(=O)C(C)(C)NC(=O)[C@@H](N)Cc1c[nH]cn1)[C@@H](C)O)C(=O)N[C@@](C)(CO)C(=O)N[C@@H](CO)C(=O)N[C@@](C)(Cc1ccccc1)C(=O)N[C@@H](CC(C)C)C(=O)N[C@@H](CCC(=O)O)C(=O)NCC(=O)N[C@@H](CCC(=O)O)C(=O)N[C@@H](C)C(=O)N[C@@H](C)C(=O)N[C@@](C)(CCCCN)C(=O)N[C@@H](CCC(=O)O)C(=O)N[C@@](C)(Cc1ccccc1)C(=O)N[C@H](C(=O)N[C@@H](C)C(=O)N[C@@](C)(Cc1ccccc1)C(=O)N[C@H](C(=O)N[C@H](C(=O)N[C@@](C)(CCCCN)C(=O)NCC(=O)NCC(N)=O)C(C)C)C(C)C)[C@@H](C)CC)C(=O)O [compound 90] (H-H[Aib]EGS[αMeF]TSDK([γGlu-Palmitoyl])[αMeS]S[αMeF]LEGEAA[αMeK]E[αMeF]IA[αMeF]VV[αMeK]GG-NH2),≥ 28 nM,≥ 28 nM,≥ 28 nM,≥ 28 nM,51 pM,43.4 pM,58.6 pM,,,,,

# More lines, now with the values ahead:
"EC50 [1, 3]","EC50 [1, 4]","EC50 [2, 5]","EC50 [2, 6]",EC50 (GLP-1R (INS1e assay); [7]),EC50 (GLP-1R (INS1e assay); [8]),EC50 (GLP-1R (INS1e assay); [9]),"EC50 ([1]; tris-lipidated peptides, second replicate, read-out: Primary assay EC50 Gluc-R (n2))","EC50 ([2]; tris-lipidated peptides, first replicate, read-out: Primary assay EC50 GIP-R (n1))","EC50 (GLP-1R (INS1e assay); tris-lipidated peptides, mean of n1 and n2, read-out: INS1e assay EC50 Mean pM GLP-1R)","EC50 (GLP-1R (INS1e assay); tris-lipidated peptides, replicate n1, read-out: INS1e assay EC50 GLP-1R n1)","EC50 (GLP-1R (INS1e assay); tris-lipidated peptides, replicate n2, read-out: INS1e assay EC50 GLP-1R n2)",Compound
≥ 26 nM,≥ 26 nM,≥ 26 nM,≥ 26 nM,7 pM,6.25 pM,8.15 pM,,,,,,CCCCCCCCCCCCCCCCCC(=O)NCCOCCOCC(=O)NCCOCCOCC(=O)NCCOCCOCC(=O)NCCCC[C@H](NC(=O)[C@H](C)NC(=O)[C@H](C)NC(=O)[C@H](CCC(=O)O)NC(=O)CNC(=O)[C@H](CCC(=O)O)NC(=O)[C@H](CC(C)C)NC(=O)[C@H](Cc1ccc(O)cc1)NC(=O)[C@H](CO)NC(=O)[C@](C)(CO)NC(=O)[C@@H](NC(=O)[C@H](CC(=O)O)NC(=O)[C@H](CO)NC(=O)[C@@H](NC(=O)[C@](C)(Cc1ccccc1)NC(=O)[C@H](CO)NC(=O)CNC(=O)[C@H](CCC(=O)O)NC(=O)C(C)(C)NC(=O)[C@@H](N)Cc1c[nH]cn1)[C@@H](C)O)C(C)C)C(=O)N[C@@H](CCC(=O)O)C(=O)N[C@@](C)(Cc1ccccc1)C(=O)N[C@H](C(=O)N[C@@H](C)C(=O)N[C@@](C)(Cc1ccccc1)C(=O)N[C@H](C(=O)N[C@H](C(=O)N[C@@](C)(CCCCN)C(=O)NCC(=O)NCC(N)=O)C(C)C)C(C)C)[C@@H](C)CC [compound 53] (H-H[Aib]EGS[αMeF]TSDV[αMeS]SYLEGEAAK([AEEA-AEEA-AEEA-Stearoyl])E[αMeF]IA[αMeF]VV[αMeK]GG-NH2)
≥ 25 nM,≥ 25 nM,≥ 25 nM,≥ 25 nM,27400 pM,31600 pM,23100 pM,,,,,,CC[C@H](C)[C@H](NC(=O)[C@](C)(Cc1ccccc1)NC(=O)[C@H](CCC(=O)O)NC(=O)[C@](C)(CCCCN)NC(=O)[C@H](CCCCNC(=O)COCCOCCNC(=O)COCCOCCNC(=O)CC[C@H](NC(=O)CCCCCCCCCCCCCCCCC(=O)O)C(=O)O)NC(=O)[C@H](C)NC(=O)[C@H](CCC(=O)O)NC(=O)CNC(=O)[C@H](CCC(=O)O)NC(=O)[C@H](CC(C)C)NC(=O)[C@](C)(Cc1ccccc1)NC(=O)[C@H](CO)NC(=O)[C@](C)(CO)NC(=O)[C@@H](NC(=O)[C@H](CC(=O)O)NC(=O)[C@H](CO)NC(=O)[C@@H](NC(=O)[C@](C)(Cc1ccccc1)NC(=O)[C@H](CO)NC(=O)CNC(=O)[C@H](CCC(=O)O)NC(=O)C(C)(C)NC(=O)[C@@H](N)Cc1c[nH]cn1)[C@@H](C)O)C(C)C)C(=O)N[C@@H](C)C(=O)N[C@@](C)(Cc1ccccc1)C(=O)N[C@H](C(=O)N[C@H](C(=O)N[C@@](C)(CCCCN)C(=O)NCC(=O)NCC(N)=O)C(C)C)C(C)C [compound 110] (H-H[Aib]EGS[αMeF]TSDV[αMeS]S[αMeF]LEGEAK([AEEA-AEEA-γGlu-C18 diacid])[αMeK]E[αMeF]IA[αMeF]VV[αMeK]GG-NH2; N-terminus assumed)
